Earlier results on two compounds are cited in patent US20070254006A1, “Medical Devices and Coatings with Non-Leaching Antimicrobial Peptides” (Massachusetts Institute of Technology, priority 2006, published 2007).

The test system of data set [1] is avidin and streptavidin. The following applies: interaction with avidin and streptavidin.
Data set [2] concerns Staphylococcus aureus. The note with it: Dacron graft soaked in peptide solution before implanting in a rat, bacterial challenge.

Turning to `O=C(O)CCCC[C@@H]1SC[C@@H]2NC(=O)N[C@@H]21` [Biotin], the Ka in data set [1] was 10^15 M^−1. In the case of dermaseptin, the “incidence of device colonization and infection” value in data set [2] was “reduces the incidence of device colonization and infection”.
